Assay results reported in PMC7413254 (Nature Communications, 2020).

Legend:
Format in all cases: cell-based
PfCRT^Dd2 [1] = target: T1, PfCRT^Dd2 (Plasmodium falciparum, UniProt Q9N623, A220S/I356T/K76T/M74I/N326S/N75E/Q271E/R371I); assay: [3H]CQ uptake into Xenopus oocytes, cis-inhibition by unlabelled solute; conditions: PfCRTDd2 oocytes, background [3H]CQ accumulation subtracted, normalised to oocyte type control
Description: (§1) The orientation of PfCRT in the parasite’s DV membrane, and also in the oocyte plasma membrane, is such that its N- and C-termini extend into the cytosol. The oocytes were suspended in a reaction buffer adjusted to pH 5.5 to mimic the pH of the DV lumen[1],[2]. In this scenario, the transport of a substrate via PfCRT from the acidic extracellular solution into the oocyte cytosol[15] is analogous to the parasite’s PfCRT-mediated efflux of a substrate from the acidic DV and into the cytosol. Unless specified otherwise, this is the direction in which substrate transport was measured in the oocyte assays.
(§2) Unless specified otherwise, the transport assays were conducted over 1.5 h at 27.5 °C and the reaction buffer was ND96 (96 mM NaCl, 2 mM KCl, 1 mM MgCl2, 1.8 mM CaCl2, 10 mM MES and 10 mM Tris-base) at pH 5.5.
(§3) Ten oocytes were washed twice with the relevant ND96 buffer. […] The assay was terminated by removing the reaction buffer and washing the oocytes with ice-cold ND96 buffer. The oocytes were lysed in 10% (w/v) sodium dodecyl sulfate (SDS) and the radioactivity accumulated within each oocyte was measured with a MicroBeta^2 microplate liquid scintillation analyser (PerkinElmer).
(§4) At least four independent experiments were performed (on different days and using oocytes from different frogs), and within each experiment measurements were made from ten oocytes per treatment.

PfCRT^Ecu1110 [2] = target: T2, PfCRT^Ecu1110 (Plasmodium falciparum, UniProt Q9N623, A220S/I356L/K76T/N326D); assay: as above; conditions: for PfCRT-mediated [3H]CQ transport, cis-inhibition (% PfCRTEcu1110 control): PfCRTEcu1110 oocytes, background [3H]CQ accumulation subtracted, normalised to oocyte type control
Description: as §1, §2, §3, §4

PfCRT^3D7 = PfCRT^3D7 (Plasmodium falciparum, UniProt Q8IBZ9); assay: cell-based; conditions: for PfCRT-mediated [3H]CQ transport, trans-stimulation (% PfCRT3D7 control): PfCRT3D7 oocytes, normalised to oocyte type control
Description: as §2
(§5) The intracellular concentrations were calculated using previous estimates of the volume of stage V–VI oocytes (~400 nL[60]). […] The oocytes were injected with VF-6 suspended in 25 nL ND96 buffer adjusted to pH 5.0, 5.5, 6.0 or 7.0, which corresponded to the injection of 2.5–250 fmol of H^+. The Na^+-dependence of the trans-stimulatory effect of VF-6 was assessed by injecting the oocytes with VF-6 suspended in ND96 buffer (pH 5.5) or a Na^+-free version of this buffer (the Na^+ was replaced with choline).
as §4

PfCRT^Dd2 [3] = target: T1, PfCRT^Dd2; assay: cell-based; conditions: for PfCRT-mediated [3H]CQ transport, trans-stimulation (% PfCRTDd2 control): PfCRTDd2 oocytes, normalised to oocyte type control; for [3H]CQ transport (% PfCRTDd2 control), trans-stimulation, PfCRTDd2: PfCRT-mediated component (background subtracted), mean ± SEM, SEM
Description: as §2, §5, §4

PfCRT^Ecu1110 [4] = target: T2, PfCRT^Ecu1110; assay: cell-based; conditions: for PfCRT-mediated [3H]CQ transport, trans-stimulation (% PfCRTEcu1110 control): PfCRTEcu1110 oocytes, normalised to oocyte type control; for [3H]CQ transport (% PfCRTDd2 control), trans-stimulation, PfCRTEcu1110: PfCRT-mediated component (background subtracted), sheet title says normalised to PfCRTDd2 control, mean ± SEM, SEM
Description: as §2, §5, §4

[5] = [test solute]i = 5 mM (intracellular)
[6] = [test solute]i = 45 mM (intracellular; 30 mM for some solutes due to solubility)
[7] = [test solute]i = 5 mM (injected)
[8] = [test solute]i = 45 mM (30 mM for some solutes due to solubility)

T1 sequence (Q9N623 whole entry A220S/I356T/K76T/M74I/N326S/N75E/Q271E/R371I): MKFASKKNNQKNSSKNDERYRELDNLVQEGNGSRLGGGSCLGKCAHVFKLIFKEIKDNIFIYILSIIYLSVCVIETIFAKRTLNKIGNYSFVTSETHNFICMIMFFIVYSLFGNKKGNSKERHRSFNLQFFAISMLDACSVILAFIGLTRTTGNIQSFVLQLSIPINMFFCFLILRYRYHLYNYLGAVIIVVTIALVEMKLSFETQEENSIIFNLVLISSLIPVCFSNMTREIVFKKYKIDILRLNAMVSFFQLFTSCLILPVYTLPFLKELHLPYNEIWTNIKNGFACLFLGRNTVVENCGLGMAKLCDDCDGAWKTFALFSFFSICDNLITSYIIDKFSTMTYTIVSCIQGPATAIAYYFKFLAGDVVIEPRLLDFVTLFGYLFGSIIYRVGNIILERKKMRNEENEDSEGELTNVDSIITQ
T2 sequence (Q9N623 whole entry A220S/I356L/K76T/N326D): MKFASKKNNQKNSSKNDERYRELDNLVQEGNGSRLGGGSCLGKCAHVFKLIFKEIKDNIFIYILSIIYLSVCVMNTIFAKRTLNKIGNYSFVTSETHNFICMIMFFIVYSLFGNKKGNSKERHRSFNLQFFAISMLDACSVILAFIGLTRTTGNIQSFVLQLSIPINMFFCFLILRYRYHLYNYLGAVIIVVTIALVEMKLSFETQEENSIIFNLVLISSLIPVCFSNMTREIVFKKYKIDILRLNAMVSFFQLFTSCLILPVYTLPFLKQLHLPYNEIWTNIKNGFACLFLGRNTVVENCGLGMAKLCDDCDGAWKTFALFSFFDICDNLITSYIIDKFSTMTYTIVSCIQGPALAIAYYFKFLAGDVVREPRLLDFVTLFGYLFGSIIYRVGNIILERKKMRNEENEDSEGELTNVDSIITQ
Chain of PfCRT^3D7 (Q8IBZ9 59-398): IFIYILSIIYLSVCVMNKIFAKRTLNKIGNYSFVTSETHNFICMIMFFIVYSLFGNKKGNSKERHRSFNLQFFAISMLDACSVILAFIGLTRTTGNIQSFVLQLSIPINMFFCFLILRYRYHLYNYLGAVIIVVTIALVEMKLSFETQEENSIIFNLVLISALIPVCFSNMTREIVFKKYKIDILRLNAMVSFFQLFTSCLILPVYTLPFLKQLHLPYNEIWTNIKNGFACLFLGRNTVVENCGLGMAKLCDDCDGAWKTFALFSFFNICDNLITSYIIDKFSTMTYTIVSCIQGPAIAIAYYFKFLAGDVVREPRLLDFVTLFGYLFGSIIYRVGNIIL

Row | Sequence | PfCRT-mediated [3H]CQ transport, cis-inhibition (% PfCRTDd2 control) (PfCRT^Dd2 [1]; [test solute] = 1 mM) | PfCRT-mediated [3H]CQ transport, cis-inhibition (% PfCRTDd2 control) (PfCRT^Dd2 [1]; [test solute] = 2 mM) | PfCRT-mediated [3H]CQ transport, cis-inhibition (% PfCRTEcu1110 control) (PfCRT^Ecu1110 [2]; [test solute] = 0.5 mM) | PfCRT-mediated [3H]CQ transport, cis-inhibition (% PfCRTEcu1110 control) (PfCRT^Ecu1110 [2]; [test solute] = 1 mM) | PfCRT-mediated [3H]CQ transport, cis-inhibition (% PfCRTEcu1110 control) (PfCRT^Ecu1110 [2]; [test solute] = 2 mM) | PfCRT-mediated [3H]CQ transport, trans-stimulation (% PfCRT3D7 control) (PfCRT^3D7; [5]) | PfCRT-mediated [3H]CQ transport, trans-stimulation (% PfCRT3D7 control) (PfCRT^3D7; [6]) | PfCRT-mediated [3H]CQ transport, trans-stimulation (% PfCRTDd2 control) (PfCRT^Dd2 [3]; [5]) | PfCRT-mediated [3H]CQ transport, trans-stimulation (% PfCRTDd2 control) (PfCRT^Dd2 [3]; [6]) | PfCRT-mediated [3H]CQ transport, trans-stimulation (% PfCRTEcu1110 control) (PfCRT^Ecu1110 [4]; [5]) | PfCRT-mediated [3H]CQ transport, trans-stimulation (% PfCRTEcu1110 control) (PfCRT^Ecu1110 [4]; [6]) | PfCRT-mediated [3H]CQ transport, cis-inhibition (% PfCRTDd2 control) (PfCRT^Dd2 [1]; [test solute] = 0.5 mM) | [3H]CQ transport (% PfCRTEcu1110 control), cis-inhibition, PfCRTEcu1110 (PfCRT^Ecu1110 [2]; cis-inhibition, [test solute] = 2 mM, PfCRT-mediated component (background subtracted), sheet title says normalised to PfCRTDd2 control, mean ± SEM, SEM) [% PfCRTEcu1110 control] | [3H]CQ transport (% PfCRT3D7 control), trans-stimulation, PfCRT3D7 (PfCRT^3D7; SEM) | [3H]CQ transport (% PfCRTDd2 control), trans-stimulation, PfCRTDd2 (PfCRT^Dd2 [3]; [7]) [% PfCRTDd2 control] | [3H]CQ transport (% PfCRTDd2 control), trans-stimulation, PfCRTDd2 (PfCRT^Dd2 [3]; [8]) [% PfCRTDd2 control] | [3H]CQ transport (% PfCRTDd2 control), trans-stimulation, PfCRTEcu1110 (PfCRT^Ecu1110 [4]; [7]) [% PfCRTEcu1110 control] | [3H]CQ transport (% PfCRTDd2 control), trans-stimulation, PfCRTEcu1110 (PfCRT^Ecu1110 [4]; [8]) [% PfCRTEcu1110 control]
1 | EFTPPVQA [EA-8] | 27 ± 0.9 | 18 ± 0.2 | 58 ± 1.1 | 43 ± 1.6 | 29 ± 2.5 | 131 ± 2.9 | 174 ± 3.3 | 97 ± 2.2 | 98 ± 1.9 | 127 ± 3.1 | 136 ± 4.1 |  |  |  |  |  |  | 
2 | LSDLHAHK [LK-8] | 51 ± 0.1 | 25 ± 0.3 | 62 ± 3.1 | 48 ± 2.2 | 39 ± 2.4 | 98 ± 3.4 | 96 ± 1.3 | 98 ± 3.3 | 97 ± 3.1 | 97 ± 1.4 | 98 ± 3.4 | 55 ± 2.3 |  |  |  |  |  | 
3 | AEALERMF [AF-8] | 52 ± 2.6 | 19 ± 0.1 | 52 ± 2.9 | 41 ± 2.1 | 32 ± 1.1 | 97 ± 3.2 | 97 ± 3.5 | 97 ± 2.8 | 96 ± 4.3 | 96 ± 3.1 | 98 ± 4.1 | 61 ± 1.3 | 10 ± 0.06 | 0.1 ± 0.03 | 97 ± 2.8 | 96 ± 4.3 | 29 ± 1.0 | 30 ± 1.9
